Reference: paper PMC10108349, “Small-Molecule Fluorescent Ligands for the CXCR4 Chemokine Receptor” (Journal of Medicinal Chemistry, 2023)

Experiments:
[1] = tested on: HEK293G cells stably expressing SNAP-CXCR4; test: Confocal microscopy of fluorescent ligand binding; assay type: cell-based, human; settings: for localisation of fluorescence in cells: 30 min at 37 °C; for membrane fluorescence after pretreatment with IT1t or AMD3100: 10 μM IT1t or 10 μM AMD3100, 30 min pre-incubation; for binding after treatment with AMD3100: 10 μM AMD3100, 30 min pre-incubation
Procedure: HEK293G-SNAP-CXCR4 cells were seeded onto poly-D-lysine-coated (10 μg/mL) 8-well Nunc Lab-tek chambered coverglass (no. 1.0 borosilicate glass bottom) in DMEM supplemented with 10% FCS at a density of 30,000 cells per well. The following day, media were replaced with fresh media supplemented with 10% FCS containing 0.5 μM SNAP-Surface Alexa Fluor 488 (New England Biolabs, Hitchin UK) for 30 min at 37 °C. […]
Cells were imaged on a Zeiss LSM880 with a Zeiss Axio Observer Z1 stand (Carl Zeiss, Germany) using a 40× C-apochromat NA1.2 water immersion objective. Excitation was via a 488 nm argon (to image SNAP-Surface Alexa Fluor 488) and 633 nm helium-neon (to image fluorescent ligands) laser lines with a 488/561/633 multibeam splitter and emission collected using a 493–628 nm band pass or 638–737 nm band pass. The pinhole was set at 1 Airy unit for the longer wavelength and laser power and gain and offset settings kept constant within the experiment to allow comparison. Equatorial plane images were made and four images were captured per condition per experiment using ZEN 2012 software (Carl Zeiss, Germany). Imaging of each ligand was performed at least three times.

NLuc-CXCR4 = target: T1, NLuc-CXCR4 (Homo sapiens, UniProt P61073); assay type: binding
T1 construct: expressed in transfected cells; membranes prepared from them
T1 sequence (P61073 whole entry): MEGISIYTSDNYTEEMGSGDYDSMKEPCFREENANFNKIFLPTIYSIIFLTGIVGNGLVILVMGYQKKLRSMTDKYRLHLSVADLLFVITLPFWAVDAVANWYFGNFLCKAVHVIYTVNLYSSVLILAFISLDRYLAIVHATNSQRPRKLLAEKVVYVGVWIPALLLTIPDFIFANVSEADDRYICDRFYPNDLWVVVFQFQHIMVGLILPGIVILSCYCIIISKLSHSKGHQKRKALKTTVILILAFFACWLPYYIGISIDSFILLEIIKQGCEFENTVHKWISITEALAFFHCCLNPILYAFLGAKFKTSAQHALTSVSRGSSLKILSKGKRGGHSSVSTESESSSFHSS
Procedure: In white clear-bottom 96-well plates or white opaque bottom 96-well plates, membranes expressing NLuc-CXCR4 were diluted to 10 μg per well in 20 μL of HBSS containing 0.2% BSA. […] Plates were then incubated in the dark for 2 h at 37 °C in the absence of CO2. The NLuc substrate furimazine (Promega Corporation) was then added (5 μL per well, 10 μM final concentration) and the plates were read using the PHERAstar FS plate reader (BMG Labtech, UK) at room temperature. The filtered light from each well was simultaneously measured using a 460 nm (80 nm band-pass filter) for NLuc emission and >610 nm longpass filter for fluorescence emission of BODIPY 630/650-X coupled ligands. For BODIPY-FL-X coupled ligands, emissions were simultaneously measured at 475 nm (30 nm band-pass filter; NLuc emission) and 535 nm (30 nm bandpass filter; BODIPY FL-X emission). The resulting raw BRET ratio was calculated by dividing the >610 nm emission (for red ligands) or the 535 nm emission (for green ligands) by the emissions measured for NLuc. […]

Row | Compound | localisation of fluorescence in cells ([1]; 100 nM ligand) | membrane fluorescence after pretreatment with IT1t or AMD3100 ([1]; 100 nM ligand) | localisation of fluorescence in cells ([1]; 50 nM ligand) | binding after treatment with AMD3100 ([1]; 50 nM ligand) | also measured
1 | CC1(C)CN2C(CS/C(=N/[C@H]3CC[C@H](NC(=O)CCCCCNC(=O)COc4ccc(/C=C/C5=[N+]6C(=Cc7ccc(-c8cccs8)n7[B-]6(F)F)C=C5)cc4)CC3)NC3CCCCC3)=CSC2=N1 [Compound 10, (6,6-Dimethyl-5,6-dihydroimidazo[2,1-b]thiazol-3-yl)methyl (E)-N-Cyclohexyl-N′-((1R,4R)-4-(6-(2-(4-((E)-2-(5,5-difluoro-7-(thiophen-2-yl)-5H-4λ^4,5λ^4-dipyrrolo[1,2-c:2′,1′-f][1,3,2]diazaborinin-3-yl)vinyl)phenoxy)acetamido)hexanamido)cyclo-hexyl)carbamimidothioate] | localized membrane fluorescence and very little intracellular fluorescence | substantially reduced | – | – | –
2 | CN(Cc1ncc2ccccc2c1CCCNC(=O)CCCCCNC(=O)COc1ccc(/C=C/C2=[N+]3C(=Cc4ccc(-c5cccs5)n4[B-]3(F)F)C=C2)cc1)[C@H]1CCCc2cccnc21 [Compound 18a, (S,E)-6-(2-(4-(2-(5,5-Difluoro-7-(thiophen-2-yl)-5H-4λ^4,5λ^4-dipyrrolo[1,2-c:2′,1′-f][1,3,2]diazaborinin-3-yl)vinyl)phenoxy)acetamido)-N-(3-(3-((methyl(5,6,7,8-tetrahydroquinolin-8-yl)amino)methyl)isoquinolin-4-yl)propyl)hexanamide] | – | – | reasonable membrane fluorescence; however, intracellular fluorescence was also apparent | reduced binding to cell surface receptors | –
3 | O=C(CCCCCNC(=O)COc1ccc(/C=C/C2=[N+]3C(=Cc4ccc(-c5cccs5)n4[B-]3(F)F)C=C2)cc1)NCCCCN(Cc1nc2ccccc2[nH]1)[C@H]1CCCc2cccnc21 [Compound 24, (S,E)-N-(4-(((1H-Benzo[d]imidazole-2-yl)methyl) (5,6,7,8-tetrahydroquinolin-8-yl)amino)butyl)-6-(2-(4-(2-(5,5-difluoro-7-(thiophen-2-yl)-5H-4λ4,5λ4-dipyrrolo [1,2-c:2′,1′-f][1,3,2]diazaborinin-3-yl)vinyl)phenoxy)acetamido)hexanamide] | – | – | reasonable membrane fluorescence; however, intracellular fluorescence was also apparent | reduced binding to cell surface receptors | –
4 | CN1\C(=C/C=C/C=C/C2=[N+](CCCCCC(=O)N[C@H]3CC[C@H](/N=C(/NC4CCCCC4)SCC4=CSC5=NC(C)(C)CN45)CC3)c3ccc(S(=O)(=O)[O-])cc3C2(C)C)C(C)(C)c2cc(S(=O)(=O)O)ccc21 [Compound 11, 1-(6-(((1R,4R)-4-(((Z)-(Cyclohexylamino) (((6,6-dimethyl-5,6-dihydroimidazo[2,1-b]thiazol-3-yl)methyl)thio)methylene)amino)cyclohexyl)amino)-6-oxohexyl)-3,3-dimethyl-2-((1E,3E)-5-((Z)-1,3,3-trimethyl-5-sulfoindolin-2-ylidene)penta-1,3-dien-1-yl)-3H-indol-1-ium-5-sulfonate] | highly localized to the cell membrane | completely prevented | – | – | –
5 | CXCL12: chemokine, the only endogenous ligand of CXCR4, purchased from PeproTech | – | – | – | – | concentration-dependent decrease of the BRET signal (NLuc-CXCR4): not; displacement of fluorescently labeled CXCL12 (NLuc-CXCR4): fully displaced
